How the values were obtained:
[1] = system: THP-1 cells (phagocytosis of opsonized Escherichia coli); assay: Antibody-dependent phagocytosis assay; format: cell-based; settings: Homo sapiens; IFNγ differentiated THP-1 cells, opsonized pHrodo Escherichia coli, 3 hours; read-out: IC50 upon phagocytosis inhibition
Procedure: THP-1 cells (2×10^5 cells/ml), which were human monocytoid cells, were cultured in the presence of 10 ng/ml IFNγ for 2 days, and they were induced to differentiate into macrophage-like cells. The differentiation-induced THP-1 cells were recovered, and the cells (5×10^4 cells/well) were then allowed to react with a predetermined concentration of test compound at room temperature for 30 minutes. Thereafter, Escherichia coli (Life Technologies) labeled with a pH-sensitive dye (pHrodo) was subjected to opsonization using an anti-Escherichia coli antibody (Life Technologies). Then, the resultant was added to the THP-1 cells obtained above, followed by incubation at 37° C. for 3 hours. Opsonized Escherichia coli and cell-permeable fluorescent dye (Calcein AM) were simultaneously added thereto, followed by quantitative determination of phagocytosis of opsonized Escherichia coli in viable cells using an IN Cell Analyzer.

[2] = target: T1, glutathione S-transferase (GST)-linked full-length human Syk protein (Homo sapiens, UniProt P43405); assay: Syk enzyme assay; format: biochemical; settings: 0.83 nM Syk, time-resolved fluorescence; read-out: IC50 of Syk-inhibitory activity
T1 construct: glutathione S-transferase (GST)-linked full-length human Syk protein; purchased Carna Biosciences; host or cells: Baculovirus expression system
Outline: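 Phosphotyrosine on a biotin-peptide substrate (0.5 μM) was read by time-resolved fluorescence at 615 and 665 nm with Eu-anti-pTyr antibody and APC-streptavidin after 1 h EDTA stop.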

[3] = system: THP-1 cells (TNFα secretion on human IgG-coated plate); assay: TNFα generation assay; format: cell-based; settings: IFN-γ differentiated THP-1 cells, 7 hours, AlphaLISA, read-out: IC50 of TNFα generation inhibitory activity
Outline: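 Secreted TNFα was measured by AlphaLISA after 7 h of culture on human IgG-coated wells (coating at 10 μg/ml), with 5×10^4 cells/well. Before plating, the cells had been treated with compound for 30 min at room temperature. The cells were macrophage-like THP-1, produced by a 2-day exposure to 10 ng/ml IFN-γ.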

`CN(C)c1c2cc(Nc3nc(N[C@@H]4CCCC[C@@H]4N)c(F)cc3C(N)=O)ccc2nn1C` [Example 2-13, 6-(((1R,2S)-2-aminocyclohexyl)amino)-2-((3-(dimethylamino)-2-methyl-2H-indazol-5-yl)amino)-5-fluoronicotinamide] was tested, and the IC50 [1] was less than 1000 nM and the IC50 [2] was less than 10 nM.

For `CCn1nc(OC)c2cc(Nc3nc(N[C@H](CC4CC4)[C@H](C)N)c(F)cc3C(N)=O)ccc21` [Example 2-50, 6-(((2R,3S)-3-amino-1-cyclopropylbutan-2-yl)amino)-2-((1-ethyl-3-methoxy-1H-indazol-5-yl)amino)-5-fluoronicotinamide], the IC50 [1] was less than 1000 nM and the IC50 [2] was less than 10 nM.

`CC[C@H](N)[C@@H](CC)Nc1nc(Nc2ccc3c(c2)c(OC)nn3C)c(C(N)=O)cc1F` [Example 2-85, 6-(((3R,4S)-4-aminohexan-3-yl)amino)-5-fluoro-2-((3-methoxy-1-methyl-1H-indazol-5-yl)amino)nicotinamide] was tested, and the IC50 [1] was less than 1000 nM and the IC50 [2] was 10 to 50 nM.

With `COc1ncc(Nc2nc(N[C@H](C3CC3)[C@H](C)N)c(F)cc2C(N)=O)cc1-n1nccn1` [Example 2-113, 6-(((1R,2S)-2-amino-1-cyclopropylpropyl)amino)-5-fluoro-2-((6-methoxy-5-(2H-1,2,3-triazol-2-yl)pyridin-3-yl)amino)nicotinamide] the IC50 [1] was 1000 to 3000 nM and the IC50 [2] was 10 to 50 nM.

`COCCOc1ncc(Nc2nc(N[C@H](C3CCC3)[C@H](C)N)c(F)cc2C(N)=O)cc1F` [Example 2-116, 6-(((1R,2S)-2-amino-1-cyclobutylpropyl)amino)-5-fluoro-2-((5-fluoro-6-(2-methoxyethoxy)pyridin-3-yl)amino)nicotinamide] gave an IC50 [1] of 1000 to 3000 nM and an IC50 [2] of 10 to 50 nM.

Molecule `COCCn1nc(OC)c2cc(Nc3nc(N[C@@H](CN)CC(C)C)c(F)cc3C(N)=O)ccc21` [Example 2-124, (R)-6-((1-amino-4-methylpentan-2-yl)amino)-5-fluoro-2-((3-methoxy-1-(2-methoxyethyl)-1H-indazol-5-yl)amino)nicotinamide] has an IC50 [1] of less than 1000 nM and an IC50 [2] of less than 10 nM.

For `COCCn1nc(OC)c2cc(Nc3nc(N[C@H](COC)[C@H](C)N)c(F)cc3C(N)=O)ccc21` [Example 2-128, 6-(((2S,3S)-3-amino-1-methoxybutan-2-yl)amino)-5-fluoro-2-((3-methoxy-1-(2-methoxyethyl)-1H-indazol-5-yl)amino)nicotinamide], the IC50 [1] was 1000 to 3000 nM and the IC50 [2] was 10 to 50 nM.

`COc1nn(C)c2c(F)cc(Nc3nc(N[C@H](C4CCC4)[C@H](C)N)c(F)cc3C(N)=O)cc12` [Example 2-158, 6-(((1R,2S)-2-amino-1-cyclobutylpropyl)amino)-5-fluoro-2-((7-fluoro-3-methoxy-1-methyl-1H-indazol-5-yl)amino)nicotinamide] showed an IC50 [1] of less than 1000 nM and an IC50 [2] of less than 10 nM.

`CCOc1ncc(Nc2nc(N[C@H](C3CC3)[C@H](C)N)c(F)cc2C(N)=O)cc1-n1ccnn1` [Example 2-163, 6-(((1R,2S)-2-amino-1-cyclopropylpropyl)amino)-2-((6-ethoxy-5-(1H-1,2,3-triazol-1-yl)pyridin-3-yl)amino)-5-fluoronicotinamide] gave an IC50 [1] of 1000 to 3000 nM and an IC50 [2] of 10 to 50 nM.

Molecule `COc1ncc(Nc2nc(N[C@H](C3CCC3)[C@H](C)N)c(F)cc2C(N)=O)cc1-n1ccnn1` [Example 2-166, 6-(((1R,2S)-2-amino-1-cyclobutylpropyl)amino)-5-fluoro-2-((6-methoxy-5-(1H-1,2,3-triazol-1-yl)pyridin-3-yl)amino)nicotinamide] has an IC50 [1] of 1000 to 3000 nM and an IC50 [2] of 10 to 50 nM.

`Cn1nc(OC(F)F)c2cc(Nc3nc(N[C@@H]4CCCC[C@@H]4N)c(F)cc3C(N)=O)ccc21` [Example 2-169, 6-(((1R,2S)-2-aminocyclohexyl)amino)-2-((3-(difluoromethoxy)-1-methyl-1H-indazol-5-yl)amino)-5-fluoronicotinamide] gave an IC50 [1] of less than 1000 nM and an IC50 [2] of less than 10 nM.

With `COCCn1nc(OC(F)F)c2cc(Nc3nc(N[C@H](COC)[C@H](C)N)c(F)cc3C(N)=O)ccc21` [Example 2-178, 6-(((2S,3S)-3-amino-1-methoxybutan-2-yl)amino)-2-((3-(difluoromethoxy)-1-(2-methoxyethyl)-1H-indazol-5-yl)amino)-5-fluoronicotinamide] the IC50 [1] was 1000 to 3000 nM and the IC50 [2] was less than 10 nM.

With `CC[C@H](N)[C@@H](C)Nc1nc(Nc2cc(F)c3c(c2)c(N(C)C)nn3C)c(C(N)=O)cc1F` [Example 2-194, 6-(((2R,3S)-3-aminopentan-2-yl)amino)-2-((3-(dimethylamino)-7-fluoro-1-methyl-1H-indazol-5-yl)amino)-5-fluoronicotinamide] the IC50 [1] was 1000 to 3000 nM and the IC50 [2] was less than 10 nM.

With `NC[C@@H](Cc1ccccc1)Nc1nc(Nc2ccc(N3CCOCC3)nc2)c(C(N)=O)cc1F` [Example 2-420, (R)-6-((1-amino-3-phenylpropan-2-yl)amino)-5-fluoro-2-((6-morpholinopyridin-3-yl)amino)nicotinamide] the IC50 [1] was less than 1000 nM.

Work on `CC[C@@H](Nc1nc(Nc2cccc(C(C)=O)c2)c(C(N)=O)cc1F)[C@H](C)N` [Example 2-478, 2-((3-acetylphenyl)amino)-6-(((2S,3R)-2-aminopentan-3-yl)amino)-5-fluoronicotinamide] yielded an IC50 [3] of 65 to 130 nM and an IC50 [2] of less than 10 nM.

In the case of `C[C@H](N)[C@H](Nc1nc(Nc2cccc(-n3nccn3)c2)c(C(N)=O)cc1F)C1CC1` [Example 2-479, 2-((3-(2H-1,2,3-triazol-2-yl)phenyl)amino)-6-(((1R,2S)-2-amino-1-cyclopropylpropyl)amino)-5-fluoronicotinamide], the IC50 [3] is reported as 65 to 130 nM and the IC50 [2] is reported as less than 10 nM.

In the case of `C[C@H](N)[C@H](Nc1nc(Nc2cccc(-n3ccnn3)c2)c(C(N)=O)cc1F)C1CC1` [Example 2-480, 2-((3-(1H-1,2,3-triazol-1-yl)phenyl)amino)-6-(((1R,2S)-2-amino-1-cyclopropylpropyl)amino)-5-fluoronicotinamide], the IC50 [3] is reported as 65 to 130 nM and the IC50 [2] is reported as less than 10 nM.

In the case of `Cc1ccc(Nc2nc(N[C@H](C3CC3)[C@H](C)N)c(F)cc2C(N)=O)cc1C` [Example 2-481, 6-(((1R,2S)-2-amino-1-cyclopropylpropyl)amino)-2-((3,4-dimethylphenyl)amino)-5-fluoronicotinamide], the IC50 [3] is reported as 65 to 130 nM and the IC50 [2] is reported as less than 10 nM.

`CC(=O)c1cccc(Nc2nc(N[C@H](C3CC3)[C@H](C)N)c(F)cc2C(N)=O)c1` [Example 2-482, 2-((3-acetylphenyl)amino)-6-(((1R,2S)-2-amino-1-cyclopropylpropyl)amino)-5-fluoronicotinamide] showed an IC50 [3] of 65 to 130 nM and an IC50 [2] of less than 10 nM.

`CNc1nn(C)c2ccc(Nc3nc(N[C@@H]4CCCC[C@@H]4N)c(F)cc3C(N)=O)cc12` [Example 2-496, 6-(((1R,2S)-2-aminocyclohexyl)amino)-5-fluoro-2-((1-methyl-3-(methylamino)-1H-indazol-5-yl)amino)nicotinamide] gave an IC50 [3] of 130 to 200 nM and an IC50 [2] of less than 10 nM.

In the case of `C[C@H](N)[C@H](Nc1nc(Nc2cnc(N3CCOCC3)c(F)c2)c(C(N)=O)cc1F)c1cccs1` [Example 2-508, 6-(((1S,2S)-2-amino-1-(thiophen-2-yl)propyl)amino)-5-fluoro-2-((5-fluoro-6-morpholinopyridin-3-yl)amino)nicotinamide], the IC50 [3] is reported as 65 to 130 nM and the IC50 [2] is reported as less than 10 nM.

For `CC(=O)c1cc(Nc2nc(N[C@@H]3CCCC[C@@H]3N)c(F)cc2C(N)=O)cnc1C` [Example 2-518, 2-((5-acetyl-6-methylpyridin-3-yl)amino)-6-(((1R,2S)-2-aminocyclohexyl)amino)-5-fluoronicotinamide], the IC50 [3] was 65 to 130 nM and the IC50 [2] was less than 10 nM.

`Cc1cnn(-c2cncc(Nc3nc(N[C@H](C4CC4)[C@H](C)N)c(F)cc3C(N)=O)c2)c1` [Example 2-519, 6-(((1R,2S)-2-amino-1-cyclopropylpropyl)amino)-5-fluoro-2-((5-(4-methyl-1H-pyrazol-1-yl)pyridin-3-yl)amino)nicotinamide] was tested, and the IC50 [3] was 130 to 200 nM and the IC50 [2] was less than 10 nM.

Work on `CC[C@@H](Nc1nc(Nc2cncc(-n3cc(C)cn3)c2)c(C(N)=O)cc1F)[C@H](C)N` [Example 2-521, 6-(((2S,3R)-2-aminopentan-3-yl)amino)-5-fluoro-2-((5-(4-methyl-1H-pyrazol-1-yl)pyridin-3-yl)amino)nicotinamide] yielded an IC50 [3] of 65 to 130 nM and an IC50 [2] of 10 to 50 nM.

`CC[C@@H](Nc1nc(Nc2cncc(-n3cc(Cl)cn3)c2)c(C(N)=O)cc1F)[C@H](C)N` [Example 2-522, 6-(((2S,3R)-2-aminopentan-3-yl)amino)-2-((5-(4-chloro-1H-pyrazol-1-yl)pyridin-3-yl)amino)-5-fluoronicotinamide] gave an IC50 [3] of 130 to 200 nM and an IC50 [2] of 10 to 50 nM.

For `COCCn1nc(OC)c2cc(Nc3nc(N[C@H](C4CC4)[C@H](C)N)c(F)cc3C(N)=O)ccc21` [Example 2-539], the IC50 [3] was 130 to 200 nM and the IC50 [2] was less than 10 nM.

With `CC[C@H](N)[C@H](Nc1nc(Nc2cccc3c2cnn3C)c(C(N)=O)cc1F)C1CC1` [Example 2-546, 6-(((1R,2S)-2-amino-1-cyclopropylbutyl)amino)-5-fluoro-2-((1-methyl-1H-indazol-4-yl)amino)nicotinamide] the IC50 [3] was 130 to 200 nM and the IC50 [2] was less than 10 nM.

— patent US9051310B2, “Nicotinamide derivative or salt thereof” (FUJIFILM Corporation, priority 2011, dated 2015)
